What all share (type): cell-based, human
In assay [1] the test system is IL-2-induced JAK1/JAK3 signal pathway. The experiment in a line: IL-2-induced proliferation of KHYG-1 cells (JAK1/JAK3 signal). As to conditions: Homo sapiens, read-out: Inhibition activity IC50 on IL-2-induced JAK1/JAK3 signal pathway. Put shortly: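 Controls were wells lacking both compound and cytokine (0%) and compound-free IL-2 wells (100%). C50 was calculated from inhibition rates across doses.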

The test system of assay [2] is IL-10-induced JAK1/TYK2 signal pathway. The experiment in a line: IL-10-induced JAK1/TYK2 signal pathway STAT3-Luc reporter gene assay in U2OS cells. As to conditions: Homo sapiens, U2OS cells, STAT3-Luc reporter, IL-10 10 ng/mL, read-out: Half inhibition dose (IC50) on IL-10-induced JAK1/TYK2 signal pathway. From the text:
Cytokine IL-10 is one of the main members of IL-10 family. The receptor that cytokine IL-10 binds to consists of two kinds of subunits, i.e., IL-10R1 and IL-10R2, which respectively couple with JAK1 and TYK2. After the coupling of IL-10 with its receptor, interaction of phosphorylation occurs between JAK1 and TYK2 to form STAT3 docking site for phosphorylation of STAT3. The phosphorylated STAT3 enters the nucleus and drives the transcription and expression of downstream genes.
The reporter gene plasmid STAT3-Luc Reporter used in the present invention has luciferase expression sequence as the reporter gene, upstream of which is a promoter sequence containing multiple STAT3 binding sites. When phosphorylated STAT3 induced by IL-10 signal pathway binds to the promoter of STAT3-Luc Reporter plasmid, luciferase is transcribed and expressed. The excitation fluorescence catalyzed by Luciferase can be detected after the addition of […] substrate, whose intensity can quantitively reflect the activation level of the signal pathway.
Human osteosarcoma cell line U20S was commercially available from American Type Culture Collection (ATCC), and relevant culture conditions referred to those from ATCC. It was known that such cell line could express IL-10R2, JAK1, TYK2 and STAT3, therefore, by exogenous expression of IL-10R1 gene, a complete IL-10 signal pathway could be established. The human IL-10R1 subunit overexpression plasmid pCMV3-IL10RA-EGFP was constructed by Shanghai Genechem Co., Ltd., and capable of simultaneously expressing enhanced green fluorescent protein. In the subsequent detection and calculation, the signal of green fluorescent protein in the tested sample was used as a reference for transfection efficiency calibration of the luciferase reporter gene signal. Reporter plasmid STAT3-Luc Reporter was commercially available from Ji Man Biotech (Shanghai) Co., Ltd.
X-tremeGENE 9 DNA Transfection Reagent (Roche) was used for the transfection of plasmid DNA into cells, Cell Culture Lysis 5× reagent (Promega) and Luciferase Assay System (Promega) were used in cell lysate preparation and enzyme-substrate reaction for luciferase reporter gene detection. Green fluorescent protein signal and luciferase reporter gene signal were both detected by Tecan Spark™ 10M multimode microplate reader. The inhibition rate of the tested compound on the IL-10 signal pathway reporter gene signal and the half inhibition dose IC50 were both calculated using Microsoft Excel and GraphPad Prism 7.00 software.
U2OS cell line was inoculated in 96-well plate with flat bottom at 5000 cells per well, and cultured overnight at 37° C. and 5% CO2 followed by plasmid transfection. Following the instructions and using X-tremeGENE 9 DNA Transfection Reagent, pCMV3-IL10RA-EGFP and STAT3-Luc Reporter plasmids were co-transfected into the inoculated U2OS cells. After 24 hours of transfection, the tested compound was added respectively for a final concentration of 0, 0.1, 0.3, 1, 3, 10, 30, 100, or 300 nM. After 6 hours of culture at 37° C. and 5% CO2, IL-10 cytokine (Human IL-10 PEPROTECH 200-10-10UG) was added to each well for a final concentration of 10 ng/mL, the well in which neither compound nor cytokine was added was designated as 0% control well. The culture was continued for 24 hours before testing.
Cell lysate was prepared by using Cell Culture Lysis reagent and transferred to 96-well plate with half-well clear bottom. The green fluorescent protein signal value was detected at Ex485/Em520 using Tecan microplate reader, and recorded. After adding to each well the luciferase substrate from Luciferase Assay System, the signal value of luciferase-substrate reaction was immediately detected at 560 nm using Tecan microplate reader, and recorded.
Using Microsoft Excel software, the signal value of luciferase-substrate reaction of each well was calculated and calibrated based on the signal value of green fluorescent protein of each well. […]
(In a reporter assay the amount or activity of a reporter protein is the signal.)

Assay [3] has as its system EPO-induced JAK2 signal pathway. The experiment in a line: EPO-induced proliferation of UT-7 cells (JAK2 signal). The settings on record: Homo sapiens, UT7; UT-7 cell proliferation, EPO 10 ng/mL, 72 hours; read-out: Inhibition activity IC50 on EPO-induced JAK2 signal pathway. A digest of the protocol:
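[…] was derived from inhibition rates across doses, scaled between wells lacking compound and cytokine (0) and EPO without compound (100), using alamarBlue fluorescence at Ex530/Em590. Compound (final 0-10000 nM) and 10 ng/mL EPO were given to UT-7 cells at 15000 per well for 72 h at 37° C.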

[4] abbreviates: KHYG-1 cell proliferation, IL-2 10 ng/mL, 72 hours.

The values that follow come from US20240101548A1, “HYDROXAMATE COMPOUND, PREPARATION METHOD THEREFOR AND APPLICATION THEREOF” (SHENZHEN CHIPSCREEN BIOSCIENCES CO., LTD., priority 2020, published 2024).

Where two headings read alike, the source gives them in different places. Bounds are passed on as bounds.

Take `CCONC(=O)c1cnc(Nc2cc(C)nc(C)n2)cc1Nc1ccc(C)cc1N(C)S(C)(=O)=O` [Example 133, 6-((2,6-dimethylpyrimidin-4-yl)amino)-N-ethoxy-4-((4-methyl-2-(N-methylmethanesulfonamido)phenyl)amino)nicotinamide]: the IC50 is greater than 10 µM in assay [1] (setting [4]), 0.000618 µM in assay [2] (U2OS) and greater than 10 µM in assay [3].
Turning to `CONC(=O)c1cnc(Nc2cccc(F)n2)cc1Nc1ccc(C)nc1N(C)S(C)(=O)=O` [Example 109, 6-((6-fluoropyridin-2-yl)amino)-N-methoxy-4-((6-methyl-2-(N-methylmethanesulfonamido)pyridin-3-yl)amino)nicotinamide], the values for the IC50 in assay [1] (setting [4]), in assay [2] (U2OS) and in assay [3] were greater than 10 µM, 0.000733 µM and greater than 10 µM, respectively.
Take `CCONC(=O)c1cnc(Nc2ccc(OC)cc2)cc1Nc1ccc(Cl)cc1N(C)S(C)(=O)=O` [Example 113, 4-((4-chloro-2-(N-methylmethanesulfonamido)phenyl)amino)-N-ethoxy-6-((4-methoxyphenyl)amino)nicotinamide]: the figures for the IC50 in assay [1] (setting [4]), in assay [2] (U2OS) and in assay [3] were greater than 10 µM, 0.000414 µM and greater than 10 µM, respectively.
For the molecule `CONC(=O)c1cnc(NC(=O)C2CC2)cc1Nc1cccc(-c2ccn(C)n2)c1OC` [Example 29, 6-(cyclopropylcarboxamido)-N-methoxy-4-((2-methoxy-3-(1-methyl-1H-pyrazol-3-yl)phenyl)amino)nicotinamide], the IC50 was greater than 10 µM in assay [1] (setting [4]), 0.00233 µM in assay [2] (U2OS) and greater than 10 µM in assay [3].
Consider `CCONC(=O)c1cnc(Nc2ccc(C#N)cn2)cc1Nc1ccc(C2CC2)cc1N(C)S(C)(=O)=O` [Example 126, 6-((5-cyanopyridin-2-yl)amino)-4-((4-cyclopropyl-2-(N-methylmethanesulfonamido)phenyl)amino)-N-ethoxy nicotinamide], for which the IC50 in assay [1] (setting [4]) was greater than 10 µM; in assay [2] (U2OS), 0.000702 µM; in assay [3], greater than 10 µM.
`CCONC(=O)c1cnc(Nc2cc(C)nc(C)n2)cc1Nc1ccccc1N(C)S(=O)(=O)C1CC1` [Example 173, 6-((2,6-dimethylpyrimidin-4-yl)amino)-N-ethoxy-4-((2-(N-methylcyclopropylsulfonamido)phenyl)amino)nicotinamide]: the IC50 in assay [1] (KHYG-1, 72 h) was greater than 10 µM; in assay [2] it was 0.000424 µM; in assay [3], greater than 10 µM.
`CCONC(=O)c1cnc(Nc2cc(C)nc(C)n2)cc1Nc1ccc(N2CCOCC2)cc1N(C)S(C)(=O)=O` [Example 134, 6-((2,6-dimethylpyrimidin-4-yl)amino)-N-ethoxy-4-((2-(N-methylmethanesulfonamido)-4-morpholinophenyl)amino)nicotinamide]: the values for the IC50 in assay [1] (setting [4]), in assay [2] (U2OS) and in assay [3] were greater than 10 µM, 0.00277 µM and greater than 10 µM, respectively.
With `CCONC(=O)c1cnc(Nc2ccc(F)cn2)cc1Nc1ccc(Cl)cc1N(C)S(C)(=O)=O` [Example 128, 4-((4-chloro-2-(N-methylmethanesulfonamido)phenyl)amino)-N-ethoxy-6-((5-fluoropyridin-2-yl)amino)nicotinamide], the IC50 in assay [1] (setting [4]) was greater than 10 µM; in assay [2] (U2OS) it was 0.000697 µM; in assay [3], greater than 10 µM.
Regarding `CCONC(=O)c1cnc(Nc2cnccn2)cc1Nc1ccc(N2CCOCC2)cc1N(C)S(C)(=O)=O` [Example 136, N-ethoxy-4-((2-(N-methylmethanesulfonamido)-4-morpholinophenyl)amino)-6-(pyrazin-2-ylamino)nicotinamide], the IC50 in assay [1] (setting [4]) is greater than 10 µM; in assay [2] (U2OS), 0.00249 µM; in assay [3], greater than 10 µM.
Take `CCONC(=O)c1cnc(Nc2ccnc(OC)n2)cc1Nc1cc(F)c(C2CC2)cc1N(C)S(C)(=O)=O` [Example 188, 4-((4-cyclopropyl-5-fluoro-2-(N-methylmethanesulfonamido)phenyl)amino)-N-ethoxy-6-((2-methoxypyrimidin-4-yl)amino)nicotinamide]: the IC50 in assay [1] (setting [4]) was greater than 10 µM; in assay [2] (U2OS), 0.00127 µM; in assay [3], greater than 10 µM.
For the molecule `CCONC(=O)c1cnc(NC(=O)C2CC2)cc1Nc1cccc(-c2ncc(C)cn2)c1OC` [Example 239, 6-(cyclopropylcarboxamido)-N-ethoxy-4-((2-methoxy-3-(5-methylpyrimidin-2-yl)phenyl)amino)nicotinamide], the IC50 in assay [1] (setting [4]) is greater than 10 µM; in assay [2] (U2OS), 0.000289 µM; in assay [3], greater than 10 µM.
For the molecule `CCONC(=O)c1cnc(Nc2cccc(F)n2)cc1Nc1ccc(Cl)cc1N(C)S(C)(=O)=O` [Example 129, 4-((4-chloro-2-(N-methylmethanesulfonamido)phenyl)amino)-N-ethoxy-6-((6-fluoropyridin-2-yl)amino)nicotinamide], the IC50 in assay [1] (setting [4]) is greater than 10 µM; in assay [2] (U2OS), 0.00108 µM; in assay [3], greater than 10 µM.
Take `CCONC(=O)c1cnc(Nc2ncc(F)cc2F)cc1Nc1cc(F)cc(-c2ncc(F)cn2)c1OC` [Example 234, 6-((3,5-difluoropyridin-2-yl)amino)-N-ethoxy-4-((5-fluoro-3-(5-fluoropyrimidin-2-yl)-2-methoxyphenyl)amino)nicotinamide]: the IC50 in assay [1] (setting [4]) is greater than 10 µM; in assay [2] (U2OS), 0.000368 µM; in assay [3], greater than 10 µM.
Consider `CCONC(=O)c1cnc(Nc2ccn(C)n2)cc1Nc1cc(F)c(C2CC2)cc1N(C)S(C)(=O)=O` [Example 171, 4-((4-cyclopropyl-5-fluoro-2-(N-methylmethanesulfonamido)phenyl)amino)-N-ethoxy-6-((1-methyl-1H-pyrazol-3-yl)amino)nicotinamide], for which the IC50 in assay [1] (setting [4]) is greater than 10 µM; in assay [2] (U2OS), 0.00154 µM; in assay [3] it was greater than 10 µM.
`CCONC(=O)c1cnc(Nc2cc(C)nc(C)n2)cc1Nc1ccc(OC)cc1N(C)S(C)(=O)=O` [Example 131, 6-((2,6-dimethylpyrimidin-4-yl)amino)-N-ethoxy-4-((4-methoxy-2-(N-methylmethanesulfonamido)phenyl)amino)nicotinamide]: the results for the IC50 in assay [1] (setting [4]), in assay [2] (U2OS) and in assay [3] were greater than 10 µM, 0.000572 µM and greater than 10 µM, respectively.
As for `CONC(=O)c1cnc(Nc2ccc(OC)cn2)cc1Nc1ccccc1N(C)S(C)(=O)=O` [Example 101], the IC50 was greater than 10 µM in assay [1] (setting [4]), 0.00147 µM in assay [2] (U2OS) and greater than 10 µM in assay [3].
With `C#Cc1ccc(Nc2cc(Nc3ccccn3)ncc2C(=O)NOCC)c(N(C)S(C)(=O)=O)c1` [Example 162, N-ethoxy-4-((4-ethynyl-2-(N-methylmethanesulfonamido)phenyl)amino)-6-(pyridin-2-ylamino)nicotinamide], the IC50 in assay [1] (setting [4]) is greater than 10 µM; in assay [2] (U2OS), 0.000438 µM; in assay [3], greater than 10 µM.
